Experimental data published in patent US7989212B2, “Detection of blood plasma schizadrin B of dissipating blood stasis botanical” (Shanghai Sundise, priority 2007, dated 2011).

Experiment: UPLC/MS detection of schizadrin B in blood plasma after administration of strengthening body resistance and dissipating blood stasis botanical
Assay type: in vivo
Settings: plasma of mammals after drenching with the botanical; FIG. 1: rat plasma 0.5 hours after administration; ethyl acetate extraction, UPLC/MS positive ion mode
Procedure: Detection method of blood plasma schizadrin B of strengthening body resistance and dissipating blood stasis botanical includes the following steps: • (1) Pretreatment of mammalian plasma samples • a. Mammal plasma containing drugs after being administered the strengthening body resistance and dissipating blood stasis botanical was extracted with ethyl acetate at the volume ratio of 1:4, whirling for 3 to 5 min, then centrifuging at 9600 rpm for 10 min; and drying and enriching the supernatant under the condition of 25 to 30° C.; • b. Redissolve eluent with mobile phase and then analyze it with UPLC/MS; • (2) UPLC/MS detection
UPLC condition: chromatographic column: ACQUITY UPLC BEH C18 (a type of chromatographic column), 2.1×100 mm, mobile phase A: Water-Acetonitrile-Formic acid 95:5:0.1 v/v/v, mobile phase B: Acetonitrile-Formic acid 100:0.1 v/v; MS condition: electrospray ionization (ESI) ion source, detection with positive ion mode, scanning at the range of m/z 150 to 1200.
The described step (2) detects with the positive ion mode; the desolvation gas flow is 440 L/h, the desolvation gas temperature is 300° C., the cone gas flow is 50 L/h, the ion source temperature is 100° C., the spray capillary voltage is 3800 V, the sampling cone voltage is 30V, the extracting cone voltage is 2.00 V, the lens voltage is 0.1 V, and the mass scanning at the range of m/z 150 to 1200.
1. […]

detection of schizadrin B in blood plasma: can be detected
Structure (SMILES): COc1cc2c(c(OC)c1OC)-c1c(cc3c(c1OC)OCO3)CC(C)C(C)C2 (stereo not shown) [Schizadrin B]
